{"source": "patent US20240173353A1", "about": "“UNIVERSAL CHIMERIC ANTIGEN RECEPTOR T-CELL AND APPLICATION THEREOF” (SHANGHAI IASO BIOTECHNOLOGY CO., LTD., priority 2021, published 2024)", "key": {"[1]": {"conditions": "cited from earlier work"}, "T cells [2]": {"tested_on": "T cells", "assay": "T cell activation by anti-CD3/CD28 DynaBeads, CD25/CD69/4-1BB expression by flow cytometry", "text": "The inventors pre-treated T cells with dasatinib or DMSO for 5 hr, then activated T cells with anti-CD3/CD28 DynaBeads for 24 hr, and then detected the expression of activation molecules CD25, CD69 and 4-1BB by flow cytometry.\nIn order to verify the tolerance of the LCK-T316I mutation to the function of dasatinib, the inventors carried out experimental verification on the T cells with LCK edited with different sgRNA lengths prepared in Example 2.\nThe inventors isolated CD3-positive T cells from human peripheral blood and divided them into eleven portions for processing, with 1e5 cells in each portion. One of these portions was not treated with dasatinib, anti-CD3/CD28 DynaBeads were not added to activate TCR, and this portion was as the initial control group; the other 10 portions of cells were pretreated with different concentrations of dasatinib for 4 hr, ten concentrations ranging from 0 nM to 50 nM were set, and then anti-CD3/CD28 DynaBeads were added to activate TCR signals overnight. On the second day, the expression of CD25, CD69 and 4-1BB activation signals was detected, and the activation of TCR signals was detected. Two replicates were set for each group of experiments.\nThe inventors divided each of the three groups of edited cells into 6 sub-groups and cultured them in a flat-bottomed 96-well plate. Each sub-group contained two technical replicates, and each well contained 0.15×10^6 cells. […] Subsequently, the cells were cultured for 18 hr. The activated T cell surface marker molecule 4-1BB was detected by using the APC-labeled murine IgG monoclonal antibody, and the activated T cell surface marker molecule CD25 was detected by using the PE-labeled murine IgG monoclonal antibody, and the activated T cell surface marker CD69 was detected by FITC-labeled murine IgG monoclonal antibody.\nThe inventors conducted research using two groups of T cells (CBE3 control group and Km edited group) in the above experiments. The experimental procedure is basically the same as the above-mentioned experiment (FIG. 32B). The two groups of edited cells were each divided into 7 sub-groups and cultured them in a flat-bottomed 96-well plate. Each sub-group contained two technical replicates, and each well contained 0.15×10^6 cells. […] Subsequently, the cells were cultured for 18 hr. The activated T cell surface marker molecule 4-1BB was detected by using the APC-labeled murine IgG monoclonal antibody, and the activated T cell surface marker molecule CD25 was detected by using the PE-labeled murine IgG monoclonal antibody, and the activated T cell surface marker CD69 was detected by FITC-labeled murine IgG monoclonal antibody."}, "T cells [3]": {"tested_on": "T cells", "assay": "UCAR-T preparation process with dasatinib added after editing", "assay_type": "cell-based, human", "conditions": "experimental group, 100 nM DS added after editing", "method": "The inventors isolated CD3-positive T cells from PBMCs from three different donors using PanT kits, knocked out the B2M and TRAC genes, and performed LCK-T316I editing on the cells. Then the cells were divided into two portions, to one portion, 100 nM DS was added (experimental group), and to the other portion, a corresponding amount of DMSO was added as a control (control group). After 2 hr, to the experimental group and the control group, T cell activators (CD2/CD3/CD28, 25 ul/1M/mL) were added. After 48 hr of activation, the cells were infected with the anti-CD19 CAR molecule through lentivirus infection, and the medium was replaced 24 hr after the virus infection, and DS or DMSO was removed at the same time."}, "CD5-UCAR-T cells": {"tested_on": "CD5-UCAR-T cells", "conditions": "reduced to 0 nM, Jurkat 4 hr", "procedure": "Subsequently, they were treated overnight with dasatinib at a concentration of 50 nM or 25 nM, respectively. […] After 4 hr of co-incubation, CD107a release in CD8 and CAR double-positive cells was detected.\nAfter 4 hr of co-incubation, CD107a release from CD8/CAR double-positive cells was detected."}, "anti-CD19-CAR-T cells": {"tested_on": "anti-CD19-CAR-T cells", "assay": "CD107a translocation of anti-CD19-CAR-T cells co-incubated with target cells", "assay_type": "cell-based, human", "conditions": "LCK-sgRNA16 editing group (43% T316I), 100 nM dasatinib 12 hr, Nalm6 target cells", "text": "First, the inventors edited the prepared anti-CD19 CAR-T by electroporation with the CBE3 protein, the RNP complex of CBE3 and LCK-sgRNA12, and the RNP complex of CBE3 and LCK-sgRNA16 respectively, to achieve three different editing treatments."}, "[4]": {"conditions": "T cells, 20 nM dasatinib 4 hr, beads overnight"}, "[5]": {"conditions": "T cells, 25 nM dasatinib 4 hr, beads overnight"}, "[6]": {"conditions": "T cells, dasatinib increased to 50 nM, beads overnight"}}, "note": "Like-named read-outs stand apart in the source and are kept apart here."}
{"smiles": "Cc1nc(Nc2ncc(C(=O)Nc3c(C)cccc3Cl)s2)cc(N2CCN(CCO)CC2)n1", "note": "[dasatinib]", "values": [{"measurement": "half-life in vivo", "setting": "[1]", "result": "3 to 4", "unit": "h"}, {"measurement": "concentration that effectively inhibits T cell activation in vitro (minimum)", "setting": "T cells [2]; T cells, 0-50 nM gradient", "result": 25, "unit": "nM"}, {"measurement": "percentage of CD25 and 4-1BB double-positive cells", "setting": "T cells [2]; [4]", "result": 2.09, "unit": "%"}, {"measurement": "percentage of CD25 and CD69 double-positive cells", "setting": "T cells [2]; [4]", "result": 8.75, "unit": "%"}, {"measurement": "percentage of CD25 and CD69 double-positive cells", "setting": "T cells [2]; [5]", "result": 1.06, "unit": "%"}, {"measurement": "percentage of double-positive cells (FIG. 20B, CD25 and 4-1BB as indicators)", "setting": "T cells [2]; [5]", "result": 0.26, "unit": "%"}, {"measurement": "concentration sufficient to inhibit activation of TCR signaling", "setting": "T cells [2]; T cells, 5 hr pretreatment, beads 24 hr", "result": 100, "unit": "nM"}, {"measurement": "percentage of CD25 and CD69 double-positive cells", "setting": "T cells [2]; [6]", "result": "below 1%"}, {"measurement": "percentage of double-positive cells (FIG. 20B, CD25 and 4-1BB as indicators)", "setting": "T cells [2]; [6]", "result": "below 1%"}, {"measurement": "reduction of expression of activation molecules versus no dasatinib", "setting": "T cells [2]; sgRNA16 group (about 50% edited), 100 nM dasatinib, anti-CD3/CD28 beads", "result": "20%-50%"}, {"measurement": "percentage of B2M and TRAC double knockout", "setting": "T cells [3]", "result": "more than 50%"}, {"measurement": "positive CD107a release", "setting": "CD5-UCAR-T cells; CD5-CART, repeat, 50 nM pretreatment", "result": 12.1, "unit": "%"}, {"measurement": "positive CD107a release", "setting": "CD5-UCAR-T cells; sg12 control CD5-UCART, 50 nM pretreatment overnight", "result": 12, "unit": "%"}, {"measurement": "positive CD107a release", "setting": "CD5-UCAR-T cells; sg16 (LCK-T316I) CD5-UCART, 50 nM pretreatment", "result": 16, "unit": "%"}, {"measurement": "positive CD107a translocation in CD8 and CAR double-positive cells", "setting": "anti-CD19-CAR-T cells", "result": 50, "unit": "%"}]}
